ChEMBL document CHEMBL1201862, “PubChem BioAssay data set” (2004)
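96-well plates; 48 h exposure; 5 concentrations. Endpoints by linear interpolation between flanking doses. Not reached: highest tested concentration assigned. At the GI50, growth is halved.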 Active and inactive are the calls of the source. No stated cut-off is given here; in the data, active = GI50 up to about 1.1 µM and inactive = higher. Where a SMILES comes first, the peptide text is derived from it. The star is where a group is joined. OSu = O=C1CCC(=O)N1O*; OBn = c1ccc(CO*)cc1; Bn = c1ccc(C*)cc1

What was measured:
Assay in all cases: NCI-60 cell line screen, 48 h
OVCAR-3 = test system: OVCAR-3
M14 = test system: M14
SF-295 = test system: SF-295
COLO 205 = test system: COLO 205
BT-549 = test system: BT-549
HL-60 = test system: HL-60
ACHN = test system: ACHN
HCT-116 = test system: HCT-116
HT-29 = test system: HT-29
SK-OV-3 = test system: SK-OV-3
SK-MEL-5 = test system: SK-MEL-5
HCT-15 = test system: HCT-15
UO-31 = test system: UO-31
TK-10 = test system: TK-10
MOLT-4 = test system: MOLT-4
U-251 = test system: U-251
RXF 393 = test system: RXF 393
NCI-H23 = test system: NCI-H23
SR = test system: SR

Row | Structure (SMILES) | GI50 (OVCAR-3) | GI50 (M14) | GI50 (SF-295) | GI50 (COLO 205) | GI50 (BT-549) | GI50 (HL-60) | GI50 (ACHN) | GI50 (HCT-116) | GI50 (HT-29) | GI50 (SK-OV-3) | GI50 (SK-MEL-5) | GI50 (HCT-15) | GI50 (UO-31) | GI50 (TK-10) | GI50 (MOLT-4) | GI50 (U-251) | GI50 (RXF 393) | GI50 (NCI-H23) | GI50 (SR)
1 | CC12C(=O)CC(CC1=O)C2(C)C | > 100 µM (inactive) | > 100 µM (inactive) | > 100 µM (inactive) | > 100 µM (inactive) | > 100 µM (inactive) | > 100 µM (inactive) | > 100 µM (inactive) | > 100 µM (inactive) | > 100 µM (inactive) | > 100 µM (inactive) | > 100 µM (inactive) | > 100 µM | > 100 µM (inactive) | > 100 µM (inactive) | > 100 µM (inactive) |  |  |  | 
2 | COC(=O)Nc1nc2cc(NC(=O)c3cccs3)ccc2[nH]1 | 19.2 µM (inactive) | 33.7 µM (inactive) | 29.6 µM (inactive) | 29.6 µM (inactive) | 55.1 µM (inactive) | 61.7 µM (inactive) | > 100 µM (inactive) | 34.4 µM (inactive) | 33 µM (inactive) | 29 µM (inactive) | 15.6 µM (inactive) | 23.9 µM | 10.1 µM (inactive) | 36.6 µM (inactive) | 33.7 µM (inactive) | 34.2 µM (inactive) | 22.8 µM (inactive) | 35.4 µM (inactive) | 
3 | O=c1ccn(C2OC(CN(O)CCC3C(O)C(CO)OC3n3ccc(=O)[nH]c3=O)C(O)C2O)c(=O)[nH]1 (centres undefined) | > 100 µM (inactive) | > 100 µM (inactive) | > 100 µM (inactive) | > 100 µM (inactive) | > 100 µM (inactive) |  | > 100 µM (inactive) | > 100 µM (inactive) | > 100 µM (inactive) | > 100 µM (inactive) |  | > 100 µM | > 100 µM (inactive) | > 100 µM (inactive) |  | > 100 µM (inactive) |  | > 100 µM (inactive) | 
4 | CCC(=O)N(c1ccccc1)C(C)CN1CCC(O)(c2cccc(C(F)(F)F)c2)CC1 (centres undefined) | 45.6 µM (inactive) | 16.1 µM (inactive) | 35.4 µM (inactive) | 14.7 µM (inactive) |  | 17.8 µM (inactive) | 36.2 µM (inactive) | 17.3 µM (inactive) | 13 µM (inactive) | 52.6 µM (inactive) | 20.6 µM (inactive) | 30.6 µM | 28.8 µM (inactive) | 25.1 µM (inactive) | 17.9 µM (inactive) | 37.2 µM (inactive) | > 100 µM (inactive) | 21.4 µM (inactive) | 
5 | CC(C)CC(NC(=O)C(N)CCC(=O)OCc1ccccc1)C(=O)NC(COCc1ccccc1)C(=O)NC(Cc1ccccc1)C(=O)ON1C(=O)CCC1=O (centres undefined) (H-E(OBn)LS(Bn)F-OSu; configuration not given here) |  | 33.4 µM (inactive) | 24.4 µM (inactive) |  |  |  | 31.6 µM (inactive) | 16.4 µM (inactive) | 38.2 µM (inactive) | 25.4 µM (inactive) | 17.4 µM (inactive) |  | 23.6 µM (inactive) | 26.7 µM (inactive) | 25.5 µM (inactive) | 24.4 µM (inactive) | 21.8 µM (inactive) | 26.4 µM (inactive) | 28.6 µM (inactive)
6 | c1csc(-c2nn3c(C45CC6CC(CC(C6)C4)C5)nnc3s2)c1 | > 100 µM (inactive) | > 100 µM (inactive) | > 100 µM (inactive) | > 100 µM (inactive) |  | > 100 µM (inactive) | > 100 µM (inactive) | > 100 µM (inactive) | > 100 µM (inactive) | > 100 µM (inactive) | 93.3 µM (inactive) | > 100 µM | 47.5 µM (inactive) |  | > 100 µM (inactive) | > 100 µM (inactive) | > 100 µM (inactive) | > 100 µM (inactive) | > 100 µM (inactive)
7 | Cc1ccc(S(=O)(=O)NC(=O)Nc2ccc(C(=O)O)c(O)c2)cc1 | > 100 µM (inactive) | > 100 µM (inactive) | > 100 µM (inactive) | > 100 µM (inactive) |  | > 100 µM (inactive) | > 100 µM (inactive) | > 100 µM (inactive) | > 100 µM (inactive) | > 100 µM (inactive) | > 100 µM (inactive) | > 100 µM | > 100 µM (inactive) | > 100 µM (inactive) | > 100 µM (inactive) | > 100 µM (inactive) | > 100 µM (inactive) | > 100 µM (inactive) | > 100 µM (inactive)
8 | C/C1=C\CC[C@@]2(C)O[C@@H]2C[C@@H]2[C@H](C/C(C)=C/CC1)OC(=O)C21CCN=N1 (some centres undefined) | > 75 µM (inactive) | > 75 µM (inactive) | 32.4 µM (inactive) | > 75 µM (inactive) | > 75 µM (inactive) | 37.2 µM (inactive) | 35.3 µM (inactive) | > 75 µM (inactive) | > 75 µM (inactive) | > 75 µM (inactive) | 34.9 µM (inactive) | > 75 µM | > 75 µM (inactive) | > 75 µM (inactive) | 16 µM (inactive) | > 75 µM (inactive) | > 75 µM (inactive) | > 75 µM (inactive) | 
9 | COc1cc2c(cc1C)NC(=O)/C2=C/c1c(Cl)n(C)c2ccccc12 | 4.11 µM (inactive) | 10.6 µM (inactive) | 7.66 µM (inactive) | 5.11 µM (inactive) | 4.57 µM (inactive) | 2.61 µM (inactive) | 10.3 µM (inactive) | 5.46 µM (inactive) | 6.08 µM (inactive) | 12.4 µM (inactive) | 4.79 µM (inactive) | 3.98 µM | 7.05 µM (inactive) | 12.4 µM (inactive) | 2.15 µM (inactive) | 10 µM (inactive) | 4.1 µM (inactive) | 6.27 µM (inactive) | 
10 | CCOC(=O)CCC(NC(=O)c1ccc(NCc2ccc3nc(OC)c(OC)nc3c2)c2ccccc12)C(=O)OCC (centres undefined) | 94.2 µM (inactive) | > 100 µM (inactive) | 36.2 µM (inactive) | > 100 µM (inactive) | > 100 µM (inactive) | 0.0836 µM (active) | 55.8 µM (inactive) | > 100 µM (inactive) | > 100 µM (inactive) | 31 µM (inactive) | 58.1 µM (inactive) | > 100 µM | > 100 µM (inactive) | 66.2 µM (inactive) | > 100 µM (inactive) | 40.5 µM (inactive) | 31 µM (inactive) | > 100 µM (inactive) | 
11 | Oc1ccc(Cl)cc1C1=Nn2c(COc3ccc4c(c3)CCCC4)nnc2SC1 | 12.6 µM (inactive) | 14.2 µM (inactive) | 14 µM (inactive) | 16 µM (inactive) | 18.3 µM (inactive) | 15 µM (inactive) | 15.4 µM (inactive) | 6.56 µM (inactive) |  | 16.9 µM (inactive) | 5.25 µM (inactive) | 17.9 µM | 10.5 µM (inactive) | 4.72 µM (inactive) | 11 µM (inactive) | 15.3 µM (inactive) | 16.5 µM (inactive) | 11.4 µM (inactive) | 
12 | CC1=NCCN=C(C)C1/N=N/c1ccc2[nH]c(C)nc2c1 | 19.5 µM (inactive) | 3.57 µM (inactive) | 13.2 µM (inactive) | 15.2 µM (inactive) | 9.08 µM (inactive) | 3.54 µM (inactive) | 15.6 µM (inactive) | 13.2 µM (inactive) | 12.6 µM (inactive) | 19.1 µM (inactive) |  | 8.77 µM |  | 19.7 µM (inactive) | 6.38 µM (inactive) | 17.5 µM (inactive) | 16.3 µM (inactive) | 13.8 µM (inactive) | 
13 | O=C(Nc1ccc([N+](=O)[O-])cc1)C1C(=O)C(=O)N(c2ccc([N+](=O)[O-])cc2)C1=O (centres undefined) | > 100 µM (inactive) | 16.2 µM (inactive) | 80.2 µM (inactive) | 35.8 µM (inactive) |  | > 100 µM (inactive) | 32.8 µM (inactive) | 80.2 µM (inactive) | > 100 µM (inactive) | > 100 µM (inactive) | 12 µM (inactive) | 61.1 µM | 78 µM (inactive) | > 100 µM (inactive) | > 100 µM (inactive) | > 100 µM (inactive) | > 100 µM (inactive) | > 100 µM (inactive) | 59 µM (inactive)
14 | O=C(O)CCC(NC(=O)c1ccc(CNc2nc3ccccc3nc2C(=O)O)cc1)C(=O)O (centres undefined) | > 100 µM (inactive) | > 100 µM (inactive) | > 100 µM (inactive) | > 100 µM (inactive) |  |  | > 100 µM (inactive) | > 100 µM (inactive) | > 100 µM (inactive) | > 100 µM (inactive) | > 100 µM (inactive) | > 100 µM | > 100 µM (inactive) | > 100 µM (inactive) | > 100 µM (inactive) | > 100 µM (inactive) |  | > 100 µM (inactive) | > 100 µM (inactive)
15 | CN1C(CC(O)c2ccccc2)CCCC1CC(O)(c1ccccc1)c1ccccc1 (centres undefined) | 15.6 µM (inactive) | 16.8 µM (inactive) | 16.9 µM (inactive) | 16.4 µM (inactive) |  | 17.3 µM (inactive) | 19.7 µM (inactive) | 14.9 µM (inactive) | 12.1 µM (inactive) | 21.4 µM (inactive) | 16.6 µM (inactive) | 16.5 µM | 8.36 µM (inactive) | 18.5 µM (inactive) | 17.5 µM (inactive) | 15.1 µM (inactive) | 14.9 µM (inactive) | 16.7 µM (inactive) | 18.7 µM (inactive)
16 | CC(C)(C)n1c(=O)n2c(-c3ccccc3)c(-c3ccccc3)n2c1=O | > 100 µM (inactive) | 37 µM (inactive) | > 100 µM (inactive) | > 100 µM (inactive) | 53.7 µM (inactive) | 11.5 µM (inactive) | > 100 µM (inactive) | 25.4 µM (inactive) | 66.7 µM (inactive) | > 100 µM (inactive) | 71.8 µM (inactive) | > 100 µM | 12.5 µM (inactive) | > 100 µM (inactive) |  | > 100 µM (inactive) | 76 µM (inactive) | > 100 µM (inactive) | 
